Measured values taken from US11560400B2, “Salts of diphosphate phosphoramidate of nucleosides as anticancer compounds” (NuCana plc, priority 2017, dated 2023).
Structures can show the parent of a compound that is named as a salt. Where two headings read alike, the source gives them in different places. Blank lines part the entries; values can stand above or below the compound they belong to.

Assays:
HT29 = assay: CellTiterGlo cell viability assay, HT29; type: cell-based; settings: Homo sapiens, HT29, 72 h; for EC50: read-out: Ab EC50; for inhibition at 198 µM: percentage inhibition at the highest concentration tested, read-out: Top Inhibit
Summary of the method: (§1)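 Compounds, serially diluted 3.16-fold in DMSO and pre-warmed in media to 37 °C, were added to cells in duplicate (final 198 μM–19.8 nM, 0.5% DMSO). Plates incubated 3 days in a CO2 incubator before CellTiterGlo readout.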

HepG2 = assay: CellTiterGlo cell viability assay, HepG2; type: cell-based
Summary of the method: as §1

OVCAR 3 = assay: CellTiterGlo cell viability assay, OVCAR 3; type: cell-based; settings: Homo sapiens; for EC50: read-out: Ab EC50; for inhibition at 198 µM: percentage inhibition at the highest concentration tested, read-out: Top Inhibit
Summary of the method: as §1

MCF-7 = assay: CellTiterGlo cell viability assay, MCF-7; type: cell-based; settings: MCF-7, 72 h; for inhibition at 198 µM: percentage inhibition at the highest concentration tested, read-out: Top Inhibit; for EC50: read-out: Ab EC50
Summary of the method: as §1

CCRF-CEM = assay: CellTiterGlo cell viability assay, CCRF-CEM; type: cell-based; settings: 72 h; for EC50: read-out: Ab EC50; for inhibition at 198 µM: percentage inhibition at the highest concentration tested, read-out: Top Inh
Summary of the method: as §1

MOLT-4 = assay: CellTiterGlo cell viability assay, MOLT-4; type: cell-based
Summary of the method: as §1

K562 = assay: CellTiterGlo cell viability assay, K562; type: cell-based
Summary of the method: as §1

HL-60 = assay: CellTiterGlo cell viability assay, HL-60; type: cell-based; settings: Homo sapiens, HL-60, 72 h; for inhibition at 198 µM: read-out: Top Inh
Summary of the method: as §1

RL = assay: CellTiterGlo cell viability assay, RL; type: cell-based; settings: Homo sapiens, 72 h
Summary of the method: as §1

RPMI-8226 = assay: CellTiterGlo cell viability assay, RPMI-8226; type: cell-based, Human
Summary of the method: as §1

KG-1 = assay: CellTiterGlo cell viability assay, KG-1; type: cell-based; settings: Homo sapiens, KG-1, 72 h
Summary of the method: as §1

in vitro = settings: human, hepatocytes, pH 7.3
Mia-Pa-Ca-2 = assay: CellTiterGlo cell viability assay, Mia-Pa-Ca-2; type: cell-based; settings: Homo sapiens, MIA PaCa-2, Mia-Pa-Ca-2, 72 h; for EC50: absolute EC50, read-out: Ab EC50; for inhibition at 198 µM: percentage inhibition at the highest concentration tested, read-out: Top Inhibit
Method: A subset of compounds of the invention were assayed for their cytotoxic activity in an array of different solid tumours and haematological malignancies using the following assay.
In vitro viability assay were performed to assess the effects of compounds on cell viability in selected cell lines over 72 h using the CellTiterGlo (CTG, Promega-G7573) assay. The tests were performed in duplicates with treatment of compounds at 9 points, 3.16 folds titration in 96 well plates over ˜72 h. The compound starting concentrations were 198 μM. Cell viability assay using CellTiterGlo in 96-well plate were performed. Compound treatment 72 h, standard growth conditions, duplicates. Compounds were dissolved to 40 mM with thawed […]. Compounds were serially diluted at 3.16 fold in thawed DMSO, and warmed to 37° C. before being dissolved in media (2 μL+200 μL). After compounds were dissolved in media, media containing compounds were warmed to 37° C. in incubator and then compounds in media were added to cell plates (50 μL+50 μL) in duplicates. The compounds' final concentrations were from 198 μM to 19.8 nM. All compound solubilities were checked and recorded again, then the plates were transferred to CO2 tissue culture incubator immediately and incubated for 3 days. DMSO final concentration is 0.5%. The parent nucleoside in each case was tested as a comparator, as was an exemplary ProTide. The drugs of the ProTide class that were tested were as follows:
The following cell lines were tested and are referred to in the Table 1 below:
In Tables 2, 3 and 4, ‘Ab EC50’ refers to the absolute EC50 and ‘Top inhibit’ refers to the percentage inhibition achieved at the highest concentration tested.

[1] = Homo sapiens; HepG2, 72 h, percentage inhibition at the highest concentration tested; read-out: Top Inhibit
[2] = Homo sapiens, MOLT-4, 72 h, percentage inhibition at the highest concentration tested, read-out: Top Inh
[3] = Homo sapiens, K562, 72 h, read-out: Ab EC50
[4] = read-out: Top Inh, RL, 72 h, percentage inhibition at the highest concentration tested
[5] = Homo sapiens, RPMI-8226, 72 h, read-out: Top Inh, RPMI-8226, 72 h, percentage inhibition at the highest concentration tested
[6] = HT-29, absolute EC50, numeric values
[7] = Homo sapiens; MOLT-4, 72 h, absolute EC50, numeric values; read-out: Ab EC50
[8] = Homo sapiens; MOLT-4, 72 h, percentage inhibition at the highest concentration tested; read-out: Top Inh
[9] = absolute EC50, numeric values, read-out: Ab EC50
[10] = percentage inhibition at the highest concentration tested
[11] = percentage inhibition at the highest concentration tested, read-out: Top Inh
[12] = Table 3 classes, read-out: Ab EC50

SMILES: C[C@H](NP(=O)(OC[C@H]1O[C@@H](n2cnc3c(N)nc(Cl)nc32)[C@H](F)C1O)Oc1ccccc1)C(=O)OCc1ccccc1 (stereo partly shown) [A, reference compound]
EC50 (HT29; HT-29, 72 h, Table 3 classes): 2 to 5 µM
EC50 (HT29; HT-29, 72 h, Table 4 classes): 1 to 5 µM
inhibition at 198 µM (HT29; HT-29, 72 h): 94%
EC50 (HepG2; Homo sapiens; HepG2, 72 h, Table 4 classes; read-out: Ab EC50): 5 to 10 µM
inhibition at 198 µM (HepG2; [1]): 99%
EC50 (OVCAR 3; OVCAR 3, 72 h, Table 4 classes): > 10 µM
inhibition at 198 µM (OVCAR 3; OVCAR 3, 72 h): 94%
inhibition at 198 µM (MCF-7; Homo sapiens, MCF7, 72 h): 99.6%
EC50 (MCF-7; Homo sapiens, MCF7, Table 3 classes): 5 to 10 µM
EC50 (MCF-7; Table 4 classes): 5 to 10 µM
EC50 (CCRF-CEM; Table 4 classes): < 0.2 µM
EC50 (CCRF-CEM; Homo sapiens, Table 3 classes): < 0.2 µM
inhibition at 198 µM (CCRF-CEM; Homo sapiens): 99.4%
EC50 (MOLT-4; Homo sapiens, MOLT-4, 72 h, Table 3 classes, read-out: Ab EC50): 0.2 to 2 µM
EC50 (MOLT-4; Homo sapiens, MOLT-4, 72 h, Table 4 classes, read-out: Ab EC50): 0.2 to 1 µM
inhibition at 198 µM (MOLT-4; [2]): 93%
EC50 (K562; [3]): > 10 µM
EC50 (K562; read-out: Ab EC50; K 562, 72 h, Table 4 classes): > 10 µM
EC50 (HL-60; read-out: Ab EC50, HL-60, 72 h, Table 3 classes): 0.2 to 2 µM
EC50 (HL-60; read-out: Ab EC50, HL-60, 72 h, Table 4 classes): 0.2 to 1 µM
inhibition at 198 µM (HL-60): 97%
EC50 (RL; read-out: Ab EC50, RL, 72 h, Table 3 classes): 2 to 5 µM
EC50 (RL; read-out: Ab EC50, RL, 72 h, Table 4 classes): 1 to 5 µM
inhibition at 198 µM (RL; [4]): 99.8%
EC50 (RPMI-8226; Homo sapiens, RPMI-8226, 72 h, read-out: Ab EC50, RPMI-8226, 72 h, Table 3 classes): 2 to 5 µM
EC50 (RPMI-8226; Homo sapiens, RPMI-8226, 72 h, read-out: Ab EC50, RPMI-8226, 72 h, Table 4 classes): 1 to 5 µM
inhibition at 198 µM (RPMI-8226; [5]): 97%
EC50 (KG-1; read-out: Ab EC50): 0.2 to 1 µM
inhibition at 198 µM (KG-1; read-out: Top Inhibit): 93%
half-life at 1 μM (in vitro): 24 min

SMILES: Nc1ncnc2c1ncn2[C@@H]1O[C@H](CO)C[C@H]1O [Cordycepin, reference compound]
EC50 (Mia-Pa-Ca-2): 84.7 µM
inhibition at 198 µM (Mia-Pa-Ca-2): 88%
EC50 (HT29; [6]): 32.7 µM
inhibition at 198 µM (HT29; HT-29): 87%
EC50 (MOLT-4; [7]): 101 µM
inhibition at 198 µM (MOLT-4; [8]): 76.5%
EC50 (K562; Homo sapiens; K562, 72 h, absolute EC50, numeric values; read-out: Ab EC50): 118 µM
inhibition at 198 µM (K562; Homo sapiens; K562, 72 h, percentage inhibition at the highest concentration tested; read-out: Top Inh): 94%
EC50 (HL-60; [9]): 118 µM
inhibition at 198 µM (HL-60; [10]): 56%
EC50 (RL; [9]): > 198 µM
inhibition at 198 µM (RL; [11]): 16.6%
EC50 (RPMI-8226; Homo sapiens; RPMI-8226, 72 h, absolute EC50, numeric values; read-out: Ab EC50): > 198 µM
inhibition at 198 µM (RPMI-8226; Homo sapiens; RPMI-8226, 72 h, percentage inhibition at the highest concentration tested; read-out: Top Inh): 17%
half-life (in vitro): 48 min

SMILES: C[C@H](NP(=O)(OC[C@@H]1C[C@H](O)[C@H](n2cnc3c(N)ncnc32)O1)Oc1ccccc1)C(=O)OCc1ccccc1 (stereo partly shown) [E, reference compound]
EC50 (Mia-Pa-Ca-2): 7.92 µM
inhibition at 198 µM (Mia-Pa-Ca-2): 98%
EC50 (HT29; HT-29, 72 h, absolute EC50, numeric values): 10.8 µM
inhibition at 198 µM (HT29; HT-29, 72 h): 97%
EC50 (MOLT-4; Homo sapiens, MOLT-4, 72 h, absolute EC50, numeric values, read-out: Ab EC50): 5.23 µM
inhibition at 198 µM (MOLT-4; [2]): 96%
EC50 (K562; [3]): 11 µM
inhibition at 198 µM (K562; Homo sapiens, K562, 72 h, read-out: Top Inh, K562, 72 h, percentage inhibition at the highest concentration tested): 87%
EC50 (HL-60; read-out: Ab EC50, HL-60, 72 h, absolute EC50, numeric values): 31.1 µM
inhibition at 198 µM (HL-60): 97%
EC50 (RL; read-out: Ab EC50, RL, 72 h, absolute EC50, numeric values): 18.3 µM
inhibition at 198 µM (RL; [4]): 90.5%
EC50 (RPMI-8226; Homo sapiens, RPMI-8226, 72 h, read-out: Ab EC50, RPMI-8226, 72 h, absolute EC50, numeric values): 19.8 µM
inhibition at 198 µM (RPMI-8226; [5]): 97.8%

SMILES: Nc1nc(Cl)nc2c1ncn2[C@@H]1O[C@H](COP(=O)(O)OP(=O)(NCC(=O)OCc2ccccc2)Oc2ccccc2)C(O)[C@H]1F (stereo partly drawn) [Example 3, 2-Chloro-9-(2′-Deoxy-2′-fluoro-β-D-arabinofuranosyl)adenine-5′-O-[phenyl(benzoxy-L-glycinyl)] Diphosphate Triethylammonium Salt]
EC50 (HT29; HT-29, 72 h, Table 3 classes): 0.2 to 2 µM
inhibition at 198 µM (HT29; HT-29, 72 h): 61%
EC50 (HepG2; Homo sapiens, HepG2, 72 h, Table 3 classes, read-out: Ab EC50): 2 to 5 µM
inhibition at 198 µM (HepG2; Homo sapiens, HepG2, 72 h, percentage inhibition at the highest concentration tested, read-out: Top Inhibit): 53%
inhibition at 198 µM (OVCAR 3; OVCAR-3, 72 h): 49%
EC50 (OVCAR 3; OVCAR 3, 72 h, Table 3 classes): > 10 µM
EC50 (MCF-7; Homo sapiens, MCF7, 72 h, Table 3 classes): 2 to 5 µM
inhibition at 198 µM (MCF-7; Homo sapiens, MCF7, 72 h): 59%
EC50 (CCRF-CEM; Homo sapiens, Table 3 classes): < 0.2 µM
inhibition at 198 µM (CCRF-CEM; Homo sapiens): 99.6%
inhibition at 198 µM (MOLT-4; [2]): 96%
EC50 (MOLT-4; Homo sapiens; MOLT-4, 72 h, Table 3 classes; read-out: Ab EC50): < 0.2 µM
inhibition at 198 µM (K562; Homo sapiens, K562, 72 h, percentage inhibition at the highest concentration tested; read-out: Top Inh): 24%
EC50 (K562; Homo sapiens; K562, 72 h, Table 3 classes; read-out: Ab EC50): > 10 µM
EC50 (HL-60; [12]): < 0.2 µM
inhibition at 198 µM (HL-60; [10]): 97%
EC50 (RL; [12]): 0.2 to 2 µM
inhibition at 198 µM (RL; [11]): 63%
EC50 (RPMI-8226; Homo sapiens, RPMI-8226, 72 h, Table 3 classes, read-out: Ab EC50): 5 to 10 µM
inhibition at 198 µM (RPMI-8226; Homo sapiens, RPMI-8226, 72 h, percentage inhibition at the highest concentration tested, read-out: Top Inh): 91.6%
half-life (in vitro): 20 to 100 min

EC50 (Mia-Pa-Ca-2): 0.03 µM
EC50 (HT29; [6]): 0.22 µM
EC50 (HepG2; Homo sapiens; HepG2, 72 h, absolute EC50, numeric values; read-out: Ab EC50): 28 µM
EC50 (OVCAR 3; OVCAR 3, 72 h, absolute EC50, numeric values): > 198 µM
EC50 (MCF-7; Homo sapiens, MCF7, absolute EC50, numeric values): 0.011 µM
EC50 (CCRF-CEM; Homo sapiens, absolute EC50, numeric values): 0.02 µM
EC50 (MOLT-4; [7]): 0.004 µM
SMILES: Nc1ccn([C@@H]2O[C@H](CO)[C@@H](O)C2(F)F)c(=O)n1 [Gemcitabine, reference compound]
inhibition at 198 µM (Mia-Pa-Ca-2): 79%
inhibition at 198 µM (HT29; HT-29): 65%
inhibition at 198 µM (HepG2; [1]): 54%
inhibition at 198 µM (OVCAR 3; OVCAR 3, 72 h): 44%
inhibition at 198 µM (MCF-7; Homo sapiens, MCF7): 53%
inhibition at 198 µM (CCRF-CEM; Homo sapiens): 101%
inhibition at 198 µM (MOLT-4; [8]): 88%
